Experimental findings from patent US20250186450A1, “COMBINATION THERAPY COMPRISING DGK INHIBITORS and PD-1/PD-L1 INHIBITORS” (Incyte Corporation, priority 2023, published 2025) are described below.

The structures appear in SMILES notation. Entries after “also recorded” stand apart in the source; their conditions may differ.

The experiment concerns MC38 syngeneic tumor model. Nature of the experiment: MC38 syngeneic tumor model, DGK inhibitor plus anti-PD-1 (RMP1-14). Type of experiment: in vivo, C57Bl/6 mice. Here is the method:
The in vivo effect of combining Compound 1 plus anti-PD-1 (RMP1-14, Bio X Cell) was assessed in the MC38 (CRL-1642, ATCC, Manassas, VA) syngeneic tumor model (see FIG. 3) in 6 to 8 weeks old C57Bl/6 mice (Jackson laboratories). Compound 1 was suspended in 5% N,N-dimethylacetamide (DMAC)+50 mM Citrate buffer in 0.5% methyl cellulose for oral administration and RMP1-14 was suspended in saline for intraperitoneal administration. Briefly, the left flank of the mice was shaved the day prior to subcutaneous inoculation with 2×10^6 MC38 cells suspended in PBS. On day 7, tumor dimensions were measured by Vernier calipers, and volume estimated by the formula Volume=[L (long dimension)×W^2 (short dimension)]/2. Mice were randomized into 6 groups of 10 mice of approximate mean volume (˜160 mm^3). Tumors were measured 3 times per week for the duration of the study. Starting day 7, mice were dosed with (i) vehicle; (ii) 250 μg/mouse of RMP1-14; (iii) 10 mg/kg of Compound 1; (iv) 1 mg/kg of Compound 1; (v) 10 mg/kg of Compound 1 and 250 μg/mouse of RMP1-14; or (vi) 1 mg/kg of Compound 1 and 250 μg/mouse of RMP1-14. Compound 1 was administered orally once daily (QD) for 12 days, while RMP1-14 was dosed every 5 days (for a total of 3 doses).
The in vivo effect of combining Compound 2 plus anti-PD-1 (RMP1-14, Bio X Cell) was assessed in the MC38 (CRL-1642, ATCC, Manassas, VA) syngeneic tumor model in 6 to 8 weeks old C57Bl/6 mice (Jackson laboratories). Compound 2 was suspended in 5% N,N-dimethylacetamide (DMAC)+50 mM Citrate buffer in 0.5% methyl cellulose for oral administration and RMP1-14 was suspended in saline for intraperitoneal administration. Briefly, the left flank of the mice was shaved the day prior to subcutaneous inoculation with 2×10^6 MC38 cells suspended in PBS. On day 7, tumor dimensions were measured by Vernier calipers, and volume estimated by the formula Volume=[L (long dimension)×W^2 (short dimension)]/2. Mice were randomized into 6 groups of 10 mice of approximate mean volume (˜130 mm^3). Tumors were measured 3 times per week for the duration of the study. Starting day 7, mice were dosed with (i) vehicle; (ii) 250 μg/mouse of RMP1-14 (Anti-PD-1); (iii) 0.5 mg/kg of Compound 2 QD; (iv) 0.5 mg/kg of Compound 2 […] and 250 μg/mouse of RMP1-14; (v) 0.5 mg/kg of Compound 2 Q2D; (vi) 0.5 mg/kg of Compound 2 […] and 250 μg/mouse of RMP1-14; (vii) 1.5 mg/kg of Compound 2 QD; (viii) 1.5 mg/kg of Compound 2 QD and 250 μg/mouse of RMP1-14 (ix) 1.5 mg/kg of Compound 2 Q2D; (x) 1.5 mg/kg of Compound 2 Q2D and 250 μg/mouse of RMP1-14; (xi) 1.5 mg/kg of Compound 2 Q3D; or (xii) 1.5 mg/kg of Compound 2 Q3D and 250 μg/mouse of RMP1-14.
The in vivo effect of combining 2-(4-((2S,5R)-4-(bis(4-fluorophenyl)methyl)-2,5-dimethylpiperazin-1-yl)-1H-[1,2,4]triazolo[3,4-b]purin-1-yl)-N,N-dimethylethane-1-amine (i.e., Compound 3) plus anti-PD-1 (RMP1-14, Bio X Cell) was assessed in the MC38 (CRL-1642, ATCC, Manassas, VA) syngeneic tumor model in 6 to 8 weeks old C57Bl/6 mice (Jackson laboratories). Compound 3 was suspended in 5% N,N-dimethylacetamide (DMAC)+50 mM Citrate buffer in 0.5% methyl cellulose for oral administration and RMP1-14 was suspended in saline for intraperitoneal administration. Briefly, the left flank of the mice was shaved the day prior to subcutaneous inoculation with 2×10^6 MC38 cells suspended in PBS. On day 7, tumor dimensions were measured by Vernier calipers, and volume estimated by the formula Volume=[L (long dimension)×W^2 (short dimension)]/2. Mice were randomized into 6 groups of 10 mice of approximate mean volume (˜200 mm^3). Tumors were measured 3 times per week for the duration of the study. Starting day 7, mice were dosed with (i) vehicle; (ii) 250 μg/mouse of RMP1-14 (Anti-PD-1); (iii) 10 mg/kg of Compound 3 QD; (iv) 10 mg/kg of Compound 3 QD and 250 μg/mouse of RMP1-14; (v) 30 mg/kg of Compound 3 QD; or (vi) 30 mg/kg of Compound 3 QD and 250 μg/mouse of RMP1-14.

Turning to `C[C@@H]1CN(c2nc3nncn3c3c2nnn3C[C@H]2CCCO2)[C@@H](C)CN1C(c1ccc(F)cc1)c1ccc(F)cc1` [Example 1, 4-((2S,5R)-4-(Bis(4-fluorophenyl)methyl)-2,5-dimethylpiperazin-1-yl)-1-(((R)-tetrahydrofuran-2-yl)methyl)-1H-[1,2,3]triazolo[4,5-e][1,2,4]triazolo[4,3-a]pyrimidine], the “combination effect on tumor growth delay (Bliss Independence analysis)” value (10 mg/kg or 1 mg/kg Compound 1 QD for 12 days with 250 μg RMP1-14, vs respective controls, FIG. 3) was “additive effect in tumor growth delay”.

In the case of `Cc1nc2c(N3C[C@@H](C)N(C(c4ccc(C(F)(F)F)cc4)C4CC(F)(F)C4)C[C@@H]3C)nc3nncn3c2n1C[C@@H]1CCCO1` (single isomer, unassigned) [Example 2], the “TGI, combined with anti-PD-1 mAb, vs anti-PD-1 mAb control group” value (1.5 mg/kg Compound 2 and 250 μg/mouse RMP1-14, FIG. 7) is “significant TGI”. Further, the “TGI, combined with anti-PD-1 mAb, vs vehicle control group” value (0.5 and 1.5 mg/kg Compound 2, independent of dose schedule, and 250 μg/mouse RMP1-14, FIG. 7) is recorded as “statistically significant; also recorded: significant TGI”. For the same molecule, under “0.5 or 1.5 mg/kg Compound 2 and 250 μg/mouse RMP1-14”, the “TGI, combination groups vs respective single-arm Compound 2 control group” value is given as “statistically significant”. Moreover, the “TGI vs vehicle and anti-PD-1 mAb control groups” value (Compound 2 alone, 0.5 or 1.5 mg/kg, FIG. 7) was “None of the single treatment arm groups dosed with Compound 2 0.5 or 1.5 mg/kg provided statistically significant TGI”.
